Marks after values point to notes of the source that are not given here.
Assays:
[1] = system: afatinib-resistant (AR) H1975 cells; test: In-cell immunostaining of protein expression and phosphorylation, afatinib-resistant H1975 cells; type: cell-based, human; details: 1975 AR; 6 h; GZ17-6.02 2 mM final curcumin, pemetrexed 500 nM; vehicle 100%
Procedure: (§1) […] Cells were fixed in place 6 hours after treatment and immunostaining of single cells performed to determine the levels of each protein/phosphor-protein (n=3+/−SD). * p<0.05 less than vehicle control; # p<0.05 greater than vehicle control.
Generation of erlotinib, afatinib and osimertinib-resistant cells. Cells were incubated in vitro with increasing concentrations of vehicle control or erlotinib or osimertinib until after ˜6 weeks the HCC827 and H1975 and H1650 cells grew with similar kinetics to sensitive cells in either erlotinib ([…]) or osimertinib ([…]), respectively. Afatinib-resistant cells were created in vivo by repeated high dosing until tumors disappeared and then regrew, as previously described.
(§2) Assessments of protein expression and protein phosphorylation. Multi-channel fluorescence HCS microscopes perform true in-cell western blotting. Three independent cultures derived from three thawed vials of cells of a tumor were sub-cultured into individual 96-well plates. Twenty-four hours after plating, the cells are transfected with a control plasmid or a control siRNA, or with an empty vector plasmid or with plasmids to express various proteins. After another 24 hours, the cells are ready for drug exposure(s). At various time-points after the initiation of drug exposure, cells are fixed in place using paraformaldehyde and using Triton X100 for permeabilization. Standard immunofluorescent blocking procedures are employed, followed by incubation of different wells with a variety of validated primary antibodies and subsequently validated fluorescent-tagged secondary antibodies are added to each well. The microscope determines the background fluorescence in the well and in parallel randomly determines the mean fluorescent intensity of 100 cells per well.

[2] = system: H1975 cells (wild type sensitive); test: In-cell immunostaining of protein expression and phosphorylation, H1975 wild type cells; type: cell-based, human; parameters: HDAC 1 expression / HDAC 2 expression / HDAC 3 expression / HDAC 4 expression / HDAC 5 expression / HDAC 6 expression / HDAC 7 expression / HDAC 8 expression / HDAC 9 expression / HDAC 10 expression / HDAC 11 expression: scale not given here; details: 6 h
Procedure: as §1, §2

[3] = 1975 WT, GZ17-6.02 2 mM final curcumin, pemetrexed 500 nM
[4] = 1975 WT, GZ17-6.02 2 mM final curcumin, pemetrexed 500 nM, vehicle 100%

Nc1nc2[nH]cc(CCc3ccc(C(=O)N[C@@H](CCC(=O)O)C(=O)O)cc3)c2c(=O)[nH]1 [PEM, Pemetrexed]
ATG5 [1]: 107% | Beclin1 [1]: 111% | CD95 [1]: 101% | CHOP [1]: 104% | ERBB1 [1]: 101% | ERBB2 [1]: 100% | ERBB3 [1]: 99% | ERBB4 [1]: 100% | ERK2 [1]: 99% | FAS-L [1]: 108% | GRP78 [1]: 109% | JAK2 [1]: 100% | P-AKT T308 [1]: 88% | P-AMPKα T172 [1]: 107% | P-ATG13 S318 [1]: 105% | P-ATM S1980 [1]: 108% | P-B1 [1]: 93% | P-B2 [1]: 97% | P-B3 [1]: 97% | P-B4 [1]: 96% | P-ERK1/2 [1]: 98% | P-JAK2 [1]: 87* % | P-NFκB S536 [1]: 98% | P-PDGFRβ [1]: 84* % | P-PERK T980 [1]: 102% | P-SRC Y416 [1]: 92% | P-SRC Y527 [1]: 109% | P-STAT3 Y705 [1]: 95% | P-STAT5 Y694 [1]: 94% | P-ULK1 S317 [1]: 105% | P-ULK1 S757 [1]: 95% | P-c-MET [1]: 102% | P-c-MT [1]: 88% | P-eIF2α S51 [1]: 103% | P-mTOR S2448 [1]: 95% | P-mTOR S2481 [1]: 83* % | PDGFRβ [1]: 100% | PP1 [1]: 104% | c-KIT [1]: 101% | c-MET [1]: 100% | p70 S6K [1]: 100% | p70 S6K T389 [1]: 97% | ERK2 expression [2, 3]: 100 | HDAC 1 expression [2, 3]: 99 | HDAC 2 expression [2, 3]: 93 | HDAC 3 expression [2, 3]: 100 | HDAC 4 expression [2, 3]: 100 | HDAC 5 expression [2, 3]: 98 | HDAC 6 expression [2, 3]: 88 | HDAC 7 expression [2, 3]: 98 | HDAC 8 expression [2, 3]: 101 | HDAC 9 expression [2, 3]: 99 | HDAC 10 expression [2, 3]: 102 | HDAC 11 expression [2, 3]: 101 | ATG5 [2, 4]: 109% | Beclin1 [2, 4]: 112% | CD95 [2, 4]: 100% | CHOP [2, 4]: 107% | ERBB1 [2, 4]: 101% | ERBB2 [2, 4]: 101% | ERBB3 [2, 4]: 99% | ERBB4 [2, 4]: 100% | ERK2 [2, 4]: 99% | FAS-L [2, 4]: 108% | GRP78 [2, 4]: 112% | JAK2 [2, 4]: 102% | P-AKT T308 [2, 4]: 87* % | P-AMPKα T172 [2, 4]: 105% | P-ATG13 S318 [2, 4]: 104% | P-ATM S1980 [2, 4]: 108% | P-B1 [2, 4]: 88% | P-B2 [2, 4]: 96% | P-B3 [2, 4]: 95% | P-B4 [2, 4]: 100% | P-ERK1/2 [2, 4]: 95% | P-JAK2 [2, 4]: 91% | P-NFκB S536 [2, 4]: 85* % | P-PDGFRβ [2, 4]: 90% | P-PERK T980 [2, 4]: 103% | P-SRC Y416 [2, 4]: 94% | P-SRC Y527 [2, 4]: 109% | P-STAT3 Y705 [2, 4]: 88% | P-STAT5 Y694 [2, 4]: 91% | P-ULK1 S317 [2, 4]: 105% | P-ULK1 S757 [2, 4]: 91% | P-c-MET [2, 4]: 94% | P-c-MT [2, 4]: 94% | P-eIF2α S51 [2, 4]: 103% | P-mTOR S2448 [2, 4]: 96% | P-mTOR S2481 [2, 4]: 91% | PDGFRβ [2, 4]: 100% | PP1 [2, 4]: 109% | c-KIT [2, 4]: 99% | c-MET [2, 4]: 100% | p70 S6K [2, 4]: 101% | p70 S6K T389 [2, 4]: 99% | BCL-XL expression ([2]; H1975 WT, VEH = 100): 87* | ERK2 expression ([2]; H1975 WT, VEH = 100): 100 | FLIP-s expression ([2]; H1975 WT, VEH = 100): 101 | MCL-1 expression ([2]; H1975 WT, VEH = 100): 81*
